Measurements taken from patent US20260297081A1, “COMPOUNDS AND METHODS OF TREATING CANCERS” (Cullgen Inc., priority 2023, published 2026).

How the values were obtained:
[1] = tested on: MCF7 cells; assay: Anti-proliferation (viability) of MCF7 cells (Table 7, FIG. 2B); assay type: cell-based; conditions: Homo sapiens, MCF7, MCF7 cells, 3-6 days, 10-point serial dilution; read-out: GI IC50 in MCF-7
[2] = biological target: CDK4 (Homo sapiens, UniProt P11802+Q16531); assay: HiBiT detection of HiBiT-tagged CDK4 protein level in MCF7 cells, 16 hours (Table 8); assay type: cell-based; parameters: expressed in transfected cells; host or cells: MCF7; conditions: MCF7 cells stably expressing HiBiT tagged target proteins; for activity at 0.01 µM: 10 nM, read-out: % CDK4 Relative Level (10 nM); for activity at 0.1 µM: 100 nM, read-out: % CDK4 Relative Level (100 nM)
Sequence of CDK4 (P11802 whole entry): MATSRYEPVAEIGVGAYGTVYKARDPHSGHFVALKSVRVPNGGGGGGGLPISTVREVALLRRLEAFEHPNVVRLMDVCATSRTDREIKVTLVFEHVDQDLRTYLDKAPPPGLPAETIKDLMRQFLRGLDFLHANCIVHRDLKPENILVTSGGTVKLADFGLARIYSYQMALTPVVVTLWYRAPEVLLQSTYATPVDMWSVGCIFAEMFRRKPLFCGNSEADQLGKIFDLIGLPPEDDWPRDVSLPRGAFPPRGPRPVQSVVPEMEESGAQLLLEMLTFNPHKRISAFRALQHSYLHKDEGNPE
Sequence of CDK4 (P24385 whole entry partner): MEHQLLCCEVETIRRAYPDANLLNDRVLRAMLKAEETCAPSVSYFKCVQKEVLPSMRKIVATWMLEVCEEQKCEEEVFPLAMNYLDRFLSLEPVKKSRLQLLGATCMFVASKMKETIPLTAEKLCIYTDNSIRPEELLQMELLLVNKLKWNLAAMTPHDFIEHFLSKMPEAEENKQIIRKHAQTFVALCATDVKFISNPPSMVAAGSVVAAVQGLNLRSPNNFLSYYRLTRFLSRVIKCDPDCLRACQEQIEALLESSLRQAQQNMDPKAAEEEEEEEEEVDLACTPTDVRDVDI
Sequence of CDK4 (Q16531 2-1140 limits assumed): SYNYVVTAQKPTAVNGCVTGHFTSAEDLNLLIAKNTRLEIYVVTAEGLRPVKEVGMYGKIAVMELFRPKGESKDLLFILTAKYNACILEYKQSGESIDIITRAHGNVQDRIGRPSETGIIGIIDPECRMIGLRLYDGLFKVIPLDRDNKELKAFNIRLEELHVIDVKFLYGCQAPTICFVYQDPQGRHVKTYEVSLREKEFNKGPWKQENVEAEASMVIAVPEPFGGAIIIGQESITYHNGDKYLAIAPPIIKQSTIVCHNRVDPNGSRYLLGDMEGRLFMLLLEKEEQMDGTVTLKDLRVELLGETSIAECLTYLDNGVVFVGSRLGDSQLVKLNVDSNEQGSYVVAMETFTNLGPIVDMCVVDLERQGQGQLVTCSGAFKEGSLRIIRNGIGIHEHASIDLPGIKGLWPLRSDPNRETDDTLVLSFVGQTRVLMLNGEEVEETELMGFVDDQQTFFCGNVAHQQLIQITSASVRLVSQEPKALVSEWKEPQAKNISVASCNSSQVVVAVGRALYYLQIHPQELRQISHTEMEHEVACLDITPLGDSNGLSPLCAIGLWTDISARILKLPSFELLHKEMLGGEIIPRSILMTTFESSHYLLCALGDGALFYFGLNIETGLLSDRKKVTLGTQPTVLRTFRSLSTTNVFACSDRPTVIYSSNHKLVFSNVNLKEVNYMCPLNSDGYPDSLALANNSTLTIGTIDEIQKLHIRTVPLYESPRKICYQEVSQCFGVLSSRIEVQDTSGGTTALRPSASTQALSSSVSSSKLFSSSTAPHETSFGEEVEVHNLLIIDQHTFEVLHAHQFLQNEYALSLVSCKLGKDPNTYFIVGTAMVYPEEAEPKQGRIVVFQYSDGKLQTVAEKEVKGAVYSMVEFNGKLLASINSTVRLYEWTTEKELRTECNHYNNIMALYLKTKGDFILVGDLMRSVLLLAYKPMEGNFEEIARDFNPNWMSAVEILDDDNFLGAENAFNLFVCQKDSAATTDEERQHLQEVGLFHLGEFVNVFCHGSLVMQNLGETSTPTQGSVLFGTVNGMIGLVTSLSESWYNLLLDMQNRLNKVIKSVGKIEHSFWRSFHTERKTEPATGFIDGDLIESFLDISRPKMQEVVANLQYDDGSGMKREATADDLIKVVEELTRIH
Experimental: HiBiT detection system quantitatively measures total amounts of HiBiT-tagged proteins using a luminescent based method. MCF7 cells stably expressing HiBiT tagged target proteins were treated with heterobifunctional compounds at indicated concentrations for 16 hours, then lysed with Nano-Glo HiBiT Lytic detection reagents.

| SMILES | IC50 [1] [nM] | activity at 0.01 µM [2] [%] | activity at 0.1 µM [2] [%] |
| --- | --- | --- | --- |
| CC(=O)c1c(C)c2cnc(Nc3ccc(N4CCN(C(C)CC(=O)N5CC6(CC(Nc7nc(NC(C)C)ccc7C(=O)Nc7ccc(N(C)C)nn7)C6)C5)CC4)cn3)nc2n(C2CCCC2)c1=O (stereo not drawn) [CPD-368, 2-((2-(3-(4-(6-((6-acetyl-8-cyclopentyl-5-methyl-7-oxo-7,8-dihydropyrido[2,3-d]pyrimidin-2-yl)amino)pyridin-3-yl)piperazin-1-yl)butanoyl)-2-azaspiro[3.3]heptan-6-yl)amino)-N-(6-(dimethylamino)pyridazin-3-yl)-6-(isopropylamino)nicotinamide] | < 50 | 55 to 85 | 55 to 85 |
| CC(=O)c1c(C)c2cnc(Nc3ccc(N4CCC5(CC4)CC5C(=O)N4CCC(Nc5nc(NC(C)C)ccc5C(=O)Nc5ccc(N(C)C)nn5)CC4)cn3)nc2n(C2CCCC2)c1=O (stereo not drawn) [CPD-407, 2-((1-(6-(6-((6-acetyl-8-cyclopentyl-5-methyl-7-oxo-7,8-dihydropyrido[2,3-d]pyrimidin-2-yl)amino)pyridin-3-yl)-6-azaspiro[2.5]octane-1-carbonyl)piperidin-4-yl)amino)-N-(6-(dimethylamino)pyridazin-3-yl)-6-(isopropylamino)nicotinamide] | < 50 | 55 to 85 | 55 to 85 |
| CC(=O)c1c(C)c2cnc(Nc3ccc(N4CCC5(CC4)CC5C(=O)NC4CC5(C4)CC(Nc4nc(NC(C)C)ccc4C(=O)Nc4ccc(N(C)C)nn4)C5)cn3)nc2n(C2CCCC2)c1=O (stereo not drawn) [CPD-414, 6-(6-((6-acetyl-8-cyclopentyl-5-methyl-7-oxo-7,8-dihydropyrido[2,3-d]pyrimidin-2-yl)amino)pyridin-3-yl)-N-(6-((3-((6-(dimethylamino)pyridazin-3-yl)carbamoyl)-6-(isopropylamino)pyridin-2-yl)amino)spiro[3.3]heptan-2-yl)-6-azaspiro[2.5]octane-1-carboxamide] | < 50 | 55 to 85 | 55 to 85 |
| CC(=O)c1c(C)c2cnc(Nc3ccc(CN4CCN(CC(=O)N5CC6(CC(Nc7nc(NC(C)C)ccc7C(=O)Nc7ccc(N(C)C)nn7)C6)C5)CC4)cn3)nc2n(C2CCCC2)c1=O [CPD-422, 2-((2-(2-(4-((6-((6-acetyl-8-cyclopentyl-5-methyl-7-oxo-7,8-dihydropyrido[2,3-d]pyrimidin-2-yl)amino)pyridin-3-yl)methyl)piperazin-1-yl)acetyl)-2-azaspiro[3.3]heptan-6-yl)amino)-N-(6-(dimethylamino)pyridazin-3-yl)-6-(isopropylamino)nicotinamide] | < 50 | > 85 | 55 to 85 |
| CC(=O)c1c(C)c2cnc(Nc3ccc(N4CCC(N(C)CC(=O)N5CC6(CC(Nc7nc(NC(C)C)ccc7C(=O)Nc7ccc(N(C)C)nn7)C6)C5)CC4)cn3)nc2n(C2CCCC2)c1=O [CPD-425, 2-((2-(N-(1-(6-((6-acetyl-8-cyclopentyl-5-methyl-7-oxo-7,8-dihydropyrido[2,3-d]pyrimidin-2-yl)amino)pyridin-3-yl)piperidin-4-yl)-N-methylglycyl)-2-azaspiro[3.3]heptan-6-yl)amino)-N-(6-(dimethylamino)pyridazin-3-yl)-6-(isopropylamino)nicotinamide] | < 50 | 55 to 85 | 55 to 85 |
| CNc1ccc(C(=O)Nc2ccc(N(C)C)nn2)c(NCCCCC(=O)NC2CCC(Nc3ncc4ccc(=O)n(C5CCCC5)c4n3)CC2)n1 (stereo not drawn) [CPD-668, 2-((5-((4-((8-cyclopentyl-7-oxo-7,8-dihydropyrido[2,3-d]pyrimidin-2-yl)amino)cyclohexyl)amino)-5-oxopentyl)amino)-N-(6-(dimethylamino)pyridazin-3-yl)-6-(methylamino)nicotinamide] |  | > 85 | > 85 |
| CNc1ccc(C(=O)Nc2ccc(N(C)C)nn2)c(NCCCCCC(=O)NC2CCC(Nc3ncc4ccc(=O)n(C5CCCC5)c4n3)CC2)n1 (stereo not drawn) [CPD-669, 2-((6-((4-((8-cyclopentyl-7-oxo-7,8-dihydropyrido[2,3-d]pyrimidin-2-yl)amino)cyclohexyl)amino)-6-oxohexyl)amino)-N-(6-(dimethylamino)pyridazin-3-yl)-6-(methylamino)nicotinamide] |  | > 85 | > 85 |
| CNc1ccc(C(=O)Nc2ccc(N(C)C)nn2)c(NCCCCCCC(=O)NC2CCC(Nc3ncc4ccc(=O)n(C5CCCC5)c4n3)CC2)n1 (stereo not drawn) [CPD-670, 2-((7-((4-((8-cyclopentyl-7-oxo-7,8-dihydropyrido[2,3-d]pyrimidin-2-yl)amino)cyclohexyl)amino)-7-oxoheptyl)amino)-N-(6-(dimethylamino)pyridazin-3-yl)-6-(methylamino)nicotinamide] |  | > 85 | > 85 |
| CNc1ccc(C(=O)Nc2ccc(N(C)C)nn2)c(NCCCCCCCC(=O)NC2CCC(Nc3ncc4ccc(=O)n(C5CCCC5)c4n3)CC2)n1 (stereo not drawn) [CPD-671, 2-((8-((4-((8-cyclopentyl-7-oxo-7,8-dihydropyrido[2,3-d]pyrimidin-2-yl)amino)cyclohexyl)amino)-8-oxooctyl)amino)-N-(6-(dimethylamino)pyridazin-3-yl)-6-(methylamino)nicotinamide] |  | > 85 | > 85 |
| CNc1ccc(C(=O)Nc2ccc(N(C)C)nn2)c(NCCOCCC(=O)NC2CCC(Nc3ncc4ccc(=O)n(C5CCCC5)c4n3)CC2)n1 (stereo not drawn) [CPD-672, 2-((2-(3-((4-((8-cyclopentyl-7-oxo-7,8-dihydropyrido[2,3-d]pyrimidin-2-yl)amino)cyclohexyl)amino)-3-oxopropoxy)ethyl)amino)-N-(6-(dimethylamino)pyridazin-3-yl)-6-(methylamino)nicotinamide] |  | > 85 | > 85 |
| CNc1ccc(C(=O)Nc2ccc(N(C)C)nn2)c(NCCC(=O)NC2CCC3(CC2)CC(Nc2ncc4ccc(=O)n(C5CCCC5)c4n2)C3)n1 (stereo not drawn) [CPD-673, 2-((3-((2-((8-cyclopentyl-7-oxo-7,8-dihydropyrido[2,3-d]pyrimidin-2-yl)amino)spiro[3.5]nonan-7-yl)amino)-3-oxopropyl)amino)-N-(6-(dimethylamino)pyridazin-3-yl)-6-(methylamino)nicotinamide] |  | > 85 | > 85 |
| CNc1ccc(C(=O)Nc2ccc(N(C)C)nn2)c(NCCCC(=O)NC2CCC3(CC2)CC(Nc2ncc4ccc(=O)n(C5CCCC5)c4n2)C3)n1 (stereo not drawn) [CPD-674, 2-((4-((2-((8-cyclopentyl-7-oxo-7,8-dihydropyrido[2,3-d]pyrimidin-2-yl)amino)spiro[3.5]nonan-7-yl)amino)-4-oxobutyl)amino)-N-(6-(dimethylamino)pyridazin-3-yl)-6-(methylamino)nicotinamide] |  | > 85 | > 85 |
| CNc1ccc(C(=O)Nc2ccc(N(C)C)nn2)c(NCCCCC(=O)NC2CCC3(CC2)CC(Nc2ncc4ccc(=O)n(C5CCCC5)c4n2)C3)n1 (stereo not drawn) [CPD-675, 2-((5-((2-((8-cyclopentyl-7-oxo-7,8-dihydropyrido[2,3-d]pyrimidin-2-yl)amino)spiro[3.5]nonan-7-yl)amino)-5-oxopentyl)amino)-N-(6-(dimethylamino)pyridazin-3-yl)-6-(methylamino)nicotinamide] |  | > 85 | > 85 |
| CNc1ccc(C(=O)Nc2ccc(N(C)C)nn2)c(NCCCCCC(=O)NC2CCC3(CC2)CC(Nc2ncc4ccc(=O)n(C5CCCC5)c4n2)C3)n1 (stereo not drawn) [CPD-676, 2-((6-((2-((8-cyclopentyl-7-oxo-7,8-dihydropyrido[2,3-d]pyrimidin-2-yl)amino)spiro[3.5]nonan-7-yl)amino)-6-oxohexyl)amino)-N-(6-(dimethylamino)pyridazin-3-yl)-6-(methylamino)nicotinamide] |  | > 85 | > 85 |
| CNc1ccc(C(=O)Nc2ccc(N(C)C)nn2)c(NCCCCCCC(=O)NC2CCC3(CC2)CC(Nc2ncc4ccc(=O)n(C5CCCC5)c4n2)C3)n1 (stereo not drawn) [CPD-677, 2-((7-((2-((8-cyclopentyl-7-oxo-7,8-dihydropyrido[2,3-d]pyrimidin-2-yl)amino)spiro[3.5]nonan-7-yl)amino)-7-oxoheptyl)amino)-N-(6-(dimethylamino)pyridazin-3-yl)-6-(methylamino)nicotinamide] |  | > 85 | > 85 |
| CNc1ccc(C(=O)Nc2ccc(N(C)C)nn2)c(NCCCCCCCC(=O)NC2CCC3(CC2)CC(Nc2ncc4ccc(=O)n(C5CCCC5)c4n2)C3)n1 (stereo not drawn) [CPD-678, 2-((8-((2-((8-cyclopentyl-7-oxo-7,8-dihydropyrido[2,3-d]pyrimidin-2-yl)amino)spiro[3.5]nonan-7-yl)amino)-8-oxooctyl)amino)-N-(6-(dimethylamino)pyridazin-3-yl)-6-(methylamino)nicotinamide] |  | > 85 | > 85 |
| CNc1ccc(C(=O)Nc2ccc(N(C)C)nn2)c(NCCOCCC(=O)NC2CCC3(CC2)CC(Nc2ncc4ccc(=O)n(C5CCCC5)c4n2)C3)n1 (stereo not drawn) [CPD-679, 2-((2-(3-((2-((8-cyclopentyl-7-oxo-7,8-dihydropyrido[2,3-d]pyrimidin-2-yl)amino)spiro[3.5]nonan-7-yl)amino)-3-oxopropoxy)ethyl)amino)-N-(6-(dimethylamino)pyridazin-3-yl)-6-(methylamino)nicotinamide] |  | > 85 | > 85 |
